Measurements from patent US20030018079A1, “Treatment” (priority 2000, published 2003).

Test: Studies 004 and 005 together: timolol run-in and comparison of patient groups
Format: in vivo, patients
Conditions: timolol run-in period before baseline
Protocol: A sub-population of 76 individuals in a population of total 854 patients enrolled into two different studies of German patients (004) and US patients (005) were identified at baseline as having some degree of abnormality to the optic nerve head together with a glaucomatous visual field defect and were treated with a fixed combination (FC) of latanoprost and timolol. Both studies were based on a randomized double-masked parallel group design. In both studies, a fixed combination (FC) of latanoprost and timolol was administered to a group of patients with optic nerve head damage and visual field loss (i.e. glaucomatous field defects) and to groups of patients without any such detected damages, but with an elevation of IOP. Patient demography and baseline characteristics in patients with and without optic nerve head damages and glaucomatous field defects are shown in Table 2.1.
The patients is the studies received one drop in the morning of a fixed combination of latanoprost (50 μg/ml) and timolol (5 mg/ml) during the study duration of 26 weeks. The exact composition of fixed combination is disclosed in Table 1. At baseline, IOP assessments were made at 08:00, 10:00, and 16:00. Measurements at the same time-points were subsequently made at scheduled clinic visits at Week 2, Week 13, and Week 26. Additionally, an 08:00 measurement was also obtained at Week 6. […]

CC(C)(C)NC[C@H](O)COc1nsnc1N1CCOCC1 [timolol]
decrease in IOP: approximately 5 mm Hg
